A short description of series [1]: Time taken to reduce 50% of the concentration of compound in blood plasma. The series is classed as ADME, tissue-based. Conditions: human.
In another series the target is Pancreatic elastase (Sus scrofa, UniProt P08419+P00772). Nature of the series: Compound was tested for its activity against porcine Pancreatic elastase. The series is classed as protein assay.
Another series has as its target Chymotrypsinogen A (Bos taurus, UniProt P00766). In words: Compound was tested for its activity against bovine pancreatic Alpha-chymotrypsin (BPC).
Another series deals with T1, Neutrophil elastase (Homo sapiens, UniProt P08246).
T1 sequence (P08246 whole entry): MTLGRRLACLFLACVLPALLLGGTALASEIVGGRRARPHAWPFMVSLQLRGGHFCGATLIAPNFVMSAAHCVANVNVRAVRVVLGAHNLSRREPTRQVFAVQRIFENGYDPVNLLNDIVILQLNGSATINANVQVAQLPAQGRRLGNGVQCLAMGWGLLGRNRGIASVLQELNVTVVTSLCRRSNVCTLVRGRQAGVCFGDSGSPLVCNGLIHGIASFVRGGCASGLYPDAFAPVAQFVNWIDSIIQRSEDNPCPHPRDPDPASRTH
Nature of the series: Compound was tested for its activity against human leukocyte elastase(HLE).

By half-life is commonly meant the time in which the quantity being followed falls by half. A lower half-life goes with fast loss. The term IC50 denotes the concentration that inhibits the measured activity by half.

In turn, `O=C1C[C@H](Cc2ccccc2)N1C(=O)NCCc1ccccc1` had a half-life in series [1] of 36 h. As for `CN(Cc1ccccc1)C(=O)N1C(=O)C[C@@H]1Cc1ccccc1`, the half-life in series [1] was 36 h. Consider `O=C1C[C@H](Cc2ccccc2)N1C(=O)N(Cc1ccccc1)OCc1ccccc1`, for which the half-life in series [1] was < 12 h. Regarding `O=C1C[C@H](Cc2ccccc2)N1C(=O)NCc1ccccn1`, the half-life in series [1] was 36 h. `C[C@H]1C(=O)N(C(=O)NCc2ccncc2)[C@H]1Cc1ccccc1` showed a half-life in series [1] of 36 h. Moreover, the IC50 at Pancreatic elastase worked out at 19 µM. Regarding `O=C1C[C@H](Cc2ccccc2)N1C(=O)Nc1ccc(F)cc1`, the half-life in series [1] is < 12 h. With `CO[C@@H]1C(=O)N(C(=O)NCc2ccncc2)[C@H]1Cc1ccccc1`, the half-life in series [1] was < 12 h. The IC50 amounted to 38 µM against Chymotrypsinogen A, 0.9 µM against Neutrophil elastase and 0.3 µM on Pancreatic elastase. Regarding `Cc1ccc(NC(=O)N2C(=O)C[C@@H]2Cc2ccccc2)cc1`, in series [1], the half-life was < 12 h. Regarding `CC[C@@H]1C(=O)N(C(=O)NCc2ccncc2)[C@H]1Cc1ccccc1`, the half-life in series [1] is 48 h. Also, the IC50 stood at 19 µM at Chymotrypsinogen A and 1.7 µM against Pancreatic elastase. For the molecule `O=C1C[C@H](Cc2ccccc2)N1C(=O)Nc1ccccc1`, in series [1], the half-life was < 12 h.

On to `CON(Cc1ccccc1)C(=O)N1C(=O)C[C@@H]1Cc1ccccc1`, for which the half-life in series [1] is < 12 h. For `C[C@@H]1C(=O)N(C(=O)NCc2ccncc2)[C@H]1Cc1ccccc1`, the half-life in series [1] was 36 h. The same molecule gave an IC50 at Pancreatic elastase of 53 µM. In series [1], `O=C1C[C@H](Cc2ccccc2)N1C(=O)N(Cc1ccccc1)C1CC1` had a half-life of 48 h. The same measure, in the same setting: the same measure for `O=C1C[C@H](Cc2ccccc2)N1C(=O)NCc1ccccc1`: 36 h. Regarding `CS[C@@H]1C(=O)N(C(=O)NCc2ccncc2)[C@H]1Cc1ccccc1`, the half-life in series [1] is < 12 h. The IC50 is 2.2 µM on Chymotrypsinogen A, < 0.2 µM on Neutrophil elastase and < 0.2 µM against Pancreatic elastase. `C=CC[C@@H]1C(=O)N(C(=O)NCc2ccncc2)[C@H]1Cc1ccccc1` had a half-life in series [1] of 36 h. For the same molecule, the IC50 was determined as 6 µM at Chymotrypsinogen A, 0.3 µM against Neutrophil elastase and 4.7 µM against Pancreatic elastase. In series [1], `CCN(Cc1ccccc1)C(=O)N1C(=O)C[C@@H]1Cc1ccccc1` showed a half-life of 48 h. The same measure, in the same setting: the same measure for `COc1ccc(NC(=O)N2C(=O)C[C@@H]2Cc2ccccc2)cc1`: 12 h.

Turning to `O=C1C[C@H](Cc2ccccc2)N1C(=O)NCc1ccncc1`, the half-life in series [1] is 24 h. The IC50 at Chymotrypsinogen A, against Neutrophil elastase and at Pancreatic elastase was > 75 µM in each case.

As to `O=C1C[C@H](Cc2ccccc2)N1C(=O)NC1CCCCC1`, the half-life in series [1] is 24 h.

On to `O=C1C[C@H](Cc2ccccc2)N1C(=O)NCc1cccnc1`, for which the half-life in series [1] was 24 h. In series [1], `CC1(C)C(=O)N(C(=O)NCc2ccncc2)[C@H]1Cc1ccccc1` showed a half-life of 120 h. Moreover, the figures for the half-inhibitory concentration (IC50) at Chymotrypsinogen A, on Neutrophil elastase and at Pancreatic elastase were > 75 µM, 3 µM and 45 µM, respectively.

In turn, `CC1(C)C(=O)N(C(=O)NCc2ccncc2)C1Cc1ccccc1` (single isomer, unassigned) gave a half-life in series [1] of 120 h.

Values taken from ChEMBL document CHEMBL1131042, “beta-Lactam derivatives as inhibitors of human cytomegalovirus protease” (J Med Chem, 1998).
